Values of other authors, collected in patent US20030166469A1, “Crop harvesting method using a 1,2,4-triazol-1-ylpropanoic acid and derivatives” (priority 2001, published 2003).

System: cotton
Conditions: tested alone, no adjuvant; data of U.S. Pat. No. 6,444,613

**Q.** For `CCOC(=O)C(Cl)Cc1cc(-n2nc(C)n(C(F)F)c2=O)c(F)cc1Cl` (stereo not drawn) [Compound Ic, ethyl α,2-dichloro-5-[4-(difluoromethyl)-4,5-dihydro-3-methyl-5-oxo-1H-1,2,4-triazol-1-yl]-4-fluoropropanoate], which defoliation of cotton is on record?
**A.** The defoliation of cotton was no more than 29%.
